TGI and GI50 data for 26 molecules are collected here from PubChem BioAssay (NCI).

What all share (assay): NCI-60 cell line screen, 48 h
For assay [1], the system named is SNB-19 CNS.
Assay [2] has as its system NCI-H226 lung.
Assay [3] relates to OVCAR-3 ovarian.
Assay [4] relates to SF-295 CNS.
The test system of assay [5] is M14 melanoma.
Assay [6] relates to HOP-92 NSCLC.
Assay [7] relates to ACHN renal.
In assay [8] the test system is MALME-3M melanoma.
Assay [9] has as its system HCT-15 colon.
Assay [10] deals with CAKI-1 renal.

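A five-concentration, 48-hour dose response in 96-well plates underlies each endpoint, interpolated linearly between surrounding concentrations. The concentration for 50% growth inhibition is given as GI50. TGI: concentration producing complete growth inhibition.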

Consider `Cc1nc2nnc(C)n2c2c1C(=O)Nc1ccccc1N2`, for which the TGI in assay [1], in assay [2], in assay [3], in assay [4], in assay [5] and in assay [6] was > 100 µM throughout. The TGI in assay [7] and in assay [8] was > 100 µM each time.
On to `Clc1cccc(NC=Nc2ccc(-c3nc4ccccc4s3)cc2)c1`, for which the GI50 in assay [1] is 15.2 µM; in [3], 9.32 µM; in assay [9], 9.48 µM; in [4], 17.4 µM; in assay [5], 14.8 µM; in [6] it was 19.6 µM. For the same molecule, the GI50 in assay [7] was 11.7 µM; in assay [10] it was 17.8 µM. Besides, the TGI in assay [1] was > 50 µM; in assay [3], 22.7 µM; in assay [9] it was 20 µM; in assay [4] it was > 50 µM; in assay [5], 29.7 µM; in assay [6], > 50 µM. For the same molecule, the TGI in assay [7] is 27.6 µM; in assay [10] it was > 50 µM.
Turning to `O=C1CSC(N2CCN(c3cccc(Cl)c3)CC2)=N1`, the GI50 in [1] is > 100 µM; in [2], > 100000 nM; in [3], > 100 µM; in assay [9], > 100 µM; in [4] it was > 100 µM; in assay [5] it was > 100 µM. Also, the results for the GI50 in [7], in assay [10] and in assay [8] were > 100 µM, > 100 µM and > 100000 nM, respectively. Also, the TGI in assay [1], in assay [2], in assay [3], in assay [9], in assay [4] and in assay [5] was > 100 µM in each case. Also, the TGI in assay [7], in assay [10] and in assay [8] was > 100 µM in each case.
`C1CN2N3CCCC23C1` (centres undefined): the TGI in assay [1], in [2], in assay [3], in [9], in [4] and in assay [5] was > 100 µM each time. The TGI in assay [7], in assay [10] and in assay [8] was > 100 µM each time.
Regarding `CCN1CCN(c2nc(NCCNc3ccnc4cc(Cl)ccc34)c3ccccc3n2)CC1`, the GI50 is 1.99 µM in assay [1]; 1820 nM in assay [2]; 1.87 µM in [3]; 1.52 µM in [9]; 1.33 µM in assay [4]; 1.59 µM in assay [5]. The figures for the GI50 in assay [6], in [7] and in assay [8] were 1.14 µM, 1.93 µM and 1950 nM, respectively. Moreover, the TGI in assay [1] stood at 14 µM; in assay [2], 4.05 µM; in assay [3] it was 4.2 µM; in assay [9], 5.25 µM; in assay [4], 2.74 µM; in [5] it was 3.36 µM. Moreover, the TGI in assay [6] is 2.49 µM; in assay [7] it was 3.89 µM; in assay [8], 3.58 µM.
On to `O=C1c2ccccc2-c2c1c1cc3c(cc1c(=O)n2CCCCl)OCO3`, for which the GI50 in assay [1] is > 100 µM; in assay [3], 11.4 µM; in assay [9], > 100 µM; in assay [4], 16.2 µM; in [5], 65.3 µM; in [6], 41.1 µM. Besides, the GI50 was 24.5 µM in [7] and 20.4 µM in [10]. The TGI in assay [1] is > 100 µM; in [3], 32 µM; in [9] it was > 100 µM; in [4], 46.8 µM; in assay [5], > 100 µM; in [6] it was > 100 µM. The TGI came to 98.7 µM in assay [7] and 82.4 µM in assay [10].
Regarding `CC1CCC[P+](Cc2ccccc2)(c2ccccc2)CC1` (centres undefined), the TGI in assay [1] was > 100 µM; in assay [9], > 100 µM; in [5] it was > 100 µM; in [7], > 100 µM; in assay [8], 42.6 µM.
In the case of `O=[N+]([O-])c1ccc(NSc2ccccc2)cc1`, the TGI in assay [1] is > 100 µM; in assay [3], > 100 µM; in assay [9] it was > 100 µM; in assay [4] it was 79 µM; in [5], 64.5 µM; in assay [6], > 100 µM. The TGI in [7] and in assay [8] was > 100 µM throughout.
For `CCOC(=O)CCCO`, the TGI in assay [1], in assay [3], in [9], in assay [4], in assay [5] and in assay [6] was > 100 µM throughout. Also, the TGI in assay [7] and in assay [8] was > 100 µM in each case.
For `NNC(=O)c1cnn(-c2ccnc3c(C(F)(F)F)cccc23)c1N`, the GI50 is > 100 µM in [1]; > 100000 nM in [2]; > 100 µM in [3]; > 100 µM in [9]; > 100 µM in assay [4]; 82.1 µM in [6]. In addition, the GI50 in [7] is > 100 µM; in assay [10] it was > 100 µM; in assay [8], > 100000 nM. Moreover, the TGI in [1], in assay [2], in [3], in assay [9], in assay [4] and in [6] was > 100 µM throughout. The TGI in assay [7], in assay [10] and in assay [8] was > 100 µM each time.
With `C[C@]12CCC(=O)C=C1CC[C@@H]1C2CC[C@]2(C)NC(=O)C(C#N)CC12` (some centres undefined), the TGI in [2], in assay [3], in [9], in assay [4], in assay [5] and in assay [7] was > 100 µM in each case. Besides, the TGI in [10] and in assay [8] was > 100 µM in each case.
For the molecule `CN(C)CCNc1nc2ccccc2c2[nH]c3ccccc3c12`, the GI50 is 1.04 µM in assay [1]; 587 nM in [2]; 0.438 µM in assay [3]; 0.439 µM in assay [4]; 0.41 µM in [5]; 0.464 µM in [6]. Further, the GI50 in assay [7] is 0.19 µM; in assay [10], 0.344 µM. In addition, the TGI in assay [1] was determined as 8 µM; in assay [2], 4.74 µM; in assay [3] it was 2.01 µM; in assay [4] it was 2.91 µM; in assay [5] it was 1.71 µM; in assay [6] it was 2.42 µM. Moreover, the results for the TGI in [7] and in [10] were 1.21 µM and 1.76 µM, respectively.
Turning to `O=S(=O)(O)C(O)/C=C/c1ccccc1` (centres undefined), the TGI in [1], in assay [2], in [3], in [9], in [4] and in assay [5] was > 100 µM each time. Moreover, the TGI in assay [7], in assay [10] and in [8] was > 100 µM each time.
As for `NC1(CCCCCCCCCCC(=O)O)CNCCNCCNCCNC1`, the TGI was 77.6 µM in [1]; > 100 µM in assay [3]; > 100 µM in assay [4]; > 100 µM in [5]; > 100 µM in assay [7]; > 100 µM in assay [10]. Moreover, the TGI in assay [8] is > 100 µM.
In the case of `CC1=CCCC(OC(N)=O)C1` (centres undefined), the TGI in [1], in assay [3], in assay [9], in [4], in [5] and in assay [6] was > 100 µM each time. Further, the TGI in assay [7], in assay [10] and in assay [8] was > 100 µM each time.
As to `COc1nc2c(cc1S(=O)(=O)c1ccccc1)CCc1c-2cnn1-c1ccccc1Cl`, the GI50 in [1] is 7.25 µM; in [2], 4910 nM; in assay [3], 8.17 µM; in assay [9], 6.24 µM; in assay [4], 5.72 µM; in assay [5] it was > 100 µM. Moreover, the GI50 in assay [10] was 5.2 µM. The TGI in assay [1], in assay [2], in [3], in [9], in [4] and in [5] was > 100 µM in each case. Moreover, the TGI in [10] is > 100 µM.
For `CC1=C(CCCOC(=O)NCCCl)C2=C(C)C3(CC3)[C@@](C)(O)C(=O)C2=C1`, the GI50 in [1] is 3.83 µM; in assay [2], 2400 nM; in [3], 2.95 µM; in assay [9] it was 2.84 µM; in assay [4], 2.53 µM; in assay [5] it was 2.46 µM. The results for the GI50 in assay [6] and in assay [8] were 2.87 µM and 1850 nM, respectively. In addition, the TGI is > 100 µM in assay [1]; 6.33 µM in assay [2]; 9.9 µM in [3]; > 100 µM in [9]; 7.33 µM in assay [4]; 8.58 µM in assay [5]. In addition, the results for the TGI in assay [6] and in assay [8] were 8.24 µM and 4.22 µM, respectively.
Turning to `COC(=O)[C@@H](C)C[C@H](Cc1ccccc1)NC(=O)c1nc([C@@H](C[C@H](C(C)C)N(C)C(=O)[C@@H](NC(=O)[C@H]2CCCN2C)C(C)C)OC(C)=O)sc1C`, the GI50 in [1] is < 0.0025 µM; in assay [2] it was 160 nM; in [3], < 0.0025 µM; in assay [9], 0.0119 µM; in assay [4], < 0.0025 µM; in assay [6], 7.33 µM. Further, the TGI in [1], in assay [2], in assay [3], in assay [9], in assay [4] and in [6] was > 25 µM throughout.
For the molecule `COC(=O)c1c(OC)cccc1C(=O)O`, the TGI in assay [1], in assay [2], in assay [3], in [9], in assay [4] and in assay [5] was > 100 µM each time. In addition, the TGI in assay [7], in [10] and in assay [8] was > 100 µM in each case.
On to `CCCCCCCCCCCCCCC1OC(=O)c2ccccc21` (centres undefined), for which the TGI in assay [1], in [2], in [3], in assay [4], in assay [5] and in [7] was > 100 µM each time. Besides, the TGI in [8] was > 100 µM.
As to `COc1ccc(N=Cc2cc(OC)c(OC)c(OC)c2)cc1`, the TGI in assay [1], in assay [3], in assay [9], in assay [6], in [7] and in assay [10] was > 100 µM throughout. The TGI in assay [8] is > 100 µM. Moreover, the GI50 in assay [3] and in assay [10] was > 100 µM throughout.
With `O=C(N/N=C/c1cccc(O)c1O)N/N=C/c1cccc(O)c1O`, the TGI is > 100 µM in assay [1]; 59.5 µM in assay [2]; 8.8 µM in assay [3]; > 100 µM in assay [9]; 46.2 µM in assay [4]; 34 µM in assay [5]. In addition, the results for the TGI in assay [6], in assay [7] and in assay [8] were 77.9 µM, > 100 µM and 74.4 µM, respectively.
Consider `OCc1c(-c2cccc3ccccc23)sc(-c2cccc3ccccc23)c1CO`, for which the TGI worked out at 25.4 µM in [1]; 32.9 µM in assay [2]; 26.5 µM in [3]; 27.9 µM in assay [9]; 28.2 µM in assay [4]; 28.9 µM in assay [5]. Besides, the TGI in assay [6] was determined as 30.7 µM; in assay [7], 25.1 µM; in [8] it was 24.5 µM.
For the molecule `O=C(O)Cc1c[nH]c2ccc(F)cc12`, the TGI in assay [1], in assay [2], in assay [3], in assay [9], in [4] and in assay [5] was > 100 µM throughout. Besides, the TGI in [6], in assay [7] and in assay [10] was > 100 µM throughout.
With `O=C1CC[C@H]2CNC(=O)C[C@H]2C1`, the TGI in [1], in [3], in [9], in [4], in assay [5] and in [6] was > 100 µM throughout. The TGI in assay [10] and in assay [8] was > 100 µM each time.
Regarding `O=c1[nH]c(=O)n(C2CC(O)C(CO)O2)cc1C#Cc1c(F)c(F)c(F)c(F)c1F` (centres undefined), the TGI in assay [1], in assay [2], in assay [3], in [9], in assay [4] and in [5] was > 100 µM in each case. The TGI in assay [7], in [10] and in assay [8] was > 100 µM in each case.
